Laboratory results from patent publication US20210228523A1, “MODULATORS OF SESTRIN-GATOR2 INTERACTION AND USES THEREOF” (Navitor Pharmaceuticals, Inc., priority 2017, published 2021).

Biological target: T1, GATOR2/Sestrin2 complexes (Homo sapiens, UniProt P58004)
T1 construct: endogenous in cells; host or cells: HEK293T cells stably expressing FLAG-WDR24 (lentiviral, pLJM60)
T1 sequence (P58004 1-480): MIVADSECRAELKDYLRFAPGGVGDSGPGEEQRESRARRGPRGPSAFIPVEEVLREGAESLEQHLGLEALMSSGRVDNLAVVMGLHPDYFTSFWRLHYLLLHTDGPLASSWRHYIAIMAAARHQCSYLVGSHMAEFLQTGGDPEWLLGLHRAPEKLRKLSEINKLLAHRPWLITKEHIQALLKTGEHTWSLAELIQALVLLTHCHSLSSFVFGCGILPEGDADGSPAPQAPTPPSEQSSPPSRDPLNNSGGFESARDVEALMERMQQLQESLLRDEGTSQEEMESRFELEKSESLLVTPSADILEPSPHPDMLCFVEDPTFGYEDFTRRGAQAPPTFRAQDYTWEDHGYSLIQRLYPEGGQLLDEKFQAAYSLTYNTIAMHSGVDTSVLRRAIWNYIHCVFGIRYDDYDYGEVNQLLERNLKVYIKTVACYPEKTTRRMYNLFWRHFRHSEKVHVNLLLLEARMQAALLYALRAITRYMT
Experiment: In vitro PPI assay (Method 1; Western blot assay): Sestrin2 bound to GATOR2 after compound addition to immunoprecipitated FLAG-WDR24 complex
Format: binding
Settings: 25 μM, % activity relative to leucine (25 μM = 100%)
From the text: This screening assay measured test compound activity in vitro on GATOR2/Sestrin2 complexes purified via immunoprecipitation of stably expressed FLAG-WDR24 from HEK293T cells. HEK293T cells (293 Ts) were engineered to stably express N-terminally tagged FLAG-WDR24 via transduction by lentivirus. Lentiviruses were produced by co-transfection of the lentiviral transfer vector pLJM60 with the […] into HEK-293T cells using the XTremeGene 9 transfection reagent (Roche Diagnostics). The media was changed 24 hours post-transfection to Dulbecco's Modified Eagle's media (DMEM) supplemented with 30% Inactivated Fetal Serum. The virus-containing supernatants were collected 48 and 72 hours after transfection and passed through a 0.45 μm filter to eliminate cells. Target cells in 6-well tissue culture plates were infected in media containing 8 μg/mL polybrene and spin infections were performed by centrifugation at 2,200 rpm for 1 hour. Twenty-four hours after infection, the virus was removed and the cells selected with the appropriate antibiotic. Cells were then grown in DMEM supplemented with 10% fetal bovine serum and antibiotics.
Seventy-two hours later, cells were placed in standard RPMI media formulated with no amino acids and supplemented with 5 mM Glucose (−AA RPMI, US Biological Life Sciences) for 1 hour then subsequently lysed in lysis buffer (40 mM HEPES, 1% Triton, 10 mM sodium β-glycerophosphate, 10 mM sodium pyrophosphate, 2.5 mM MgCl2 and protease inhibitors). To isolate the FLAG-WDR24/endogenous-Sestrin2 complex, crude lysate (equivalent to 2-4 mg of total protein) in a volume of 1 ml was subjected to immunoprecipitation with 30 μl of anti-flag resin (SIGMA) for 2 hours at 4° C., washed twice in cold lysis buffer plus 0.5M NaCl and resuspended in 1 ml of cold cytosolic buffer (40 mM HEPES pH 7.4, 140 mM KCl, 10 mM NaCl, 2.5 mM MgCl2, 0.1% TritonX-100). […] After the incubation period, samples were centrifuged to pellet the FLAG-WDR24/endogenous-Sestrin2 complex bound to the anti-flag resin, the supernatant was completely removed and resin was resuspended in SDS-PAGE sample buffer and boiled for 5 minutes. Samples were then processed by SDS-PAGE and western blots were performed with anti-FLAG (SIGMA) and anti-Sestrin2 (Cell Signaling Technology) antibodies as described in L. Chantranupong, et al., Cell Reports 9:1-8 (2014).
The resulting western blots were scanned and band intensities corresponding to Sestrin2 and FLAG-WDR24 were quantified using the LI-COR® imaging platform. To determine the amount of Sestrin2 bound to GATOR2 for each condition, the band intensity for Sestrin2 was normalized to the band intensity of FLAG-WDR24. […]
72 hours later, cells were placed in standard RPMI media formulated with no amino acids and supplemented with 5 mM Glucose (−AA RPMI, USBiological Life Sciences) for 1 hour then subsequently lysed in lysis buffer (40 mM HEPES, 1% Triton, 10 mM Sodium Beta-Glycerophosphate, 10 mM Sodium Pyrophosphate, 2.5 mM MgCl2 and protease inhibitors). The Flag-WDR24/endogenous-Sestrin2 complex was isolated as follows: crude lysate (equivalent to 2-4 mg of total protein) in a volume of 1 ml was subjected to immunoprecipitation (IP) with 30 μl of anti-flag resin (SIGMA) for 2 hours at 4° C., washed twice in cold lysis buffer plus 0.5M NaCl and resuspended in 1 ml of cold cytosolic buffer (40 mM HEPES pH 7.4, 140 mM KCl, 10 mM NaCl, 2.5 mM MgCl2, 0.1% TritonX-100). Compounds were then added to each sample at a given concentration of 25 μM and incubated with rotation at 4° C. for 30 minutes. After the incubation period, samples were centrifuged to pellet the Flag-WDR24/endogenous-Sestrin2 complex bound to the anti-flag resin, the supernatant was completely removed and resin was resuspended in sodium dodecyl sulfate-polyacrylamide gel electrophoresis (SDS-PAGE) sample buffer and boiled for 5 minutes. […]

For `N[C@@H](CC(C(F)(F)F)C(F)(F)F)C(=O)O` [Compound I-164, (S)-2-Amino-5,5,5-trifluoro-4-(trifluoromethyl)pentanoic Acid], the “Activity of Leucine: % Activity” value was “A (a % activity relative to leucine of ≥40%)”.
In the case of `N[C@H](CC1CCCC1)C(=O)O` [Compound I-40], the “Activity of Leucine: % Activity” value is reported as “A (a % activity relative to leucine of ≥40%)”.
For `CN[C@@H](CC(C)(C)C)C(N)=O` [Compound I-49], the “Activity of Leucine: % Activity” value was “C (a % activity relative to leucine of between -40 and 40%)”.
In the case of `CC(C)C[C@H](N)S(=O)(=O)O` [Compound I-157], the “Activity of Leucine: % Activity” value is reported as “B to C”.
`COC(=O)/C=C/C(=O)N[C@@H](CC(C)C)C(=O)O` [Compound I-45, (S,E)-2-(4-methoxy-4-oxobut-2-enamido)-4-methylpentanoic Acid] was tested, and the “Activity of Leucine: % Activity” value was “B (a % activity relative to leucine of ≤−40%)”.
For `CC(C)C[C@@H](C(=O)O)N(C)C` [Compound I-1, (S)-2-(dimethylamino)-4-methylpentanoic Acid], the “Activity of Leucine: % Activity” value was “B (a % activity relative to leucine of ≤−40%)”.
In the case of `CC(C)C[C@H](NC(=O)C1CCCCC1)C(=O)O` [Compound I-22, (S)-2-(Cyclohexanecarboxamido)-4-methylpentanoic Acid], the “Activity of Leucine: % Activity” value is reported as “C (a % activity relative to leucine of between -40 and 40%)”.
With `N[C@@H](CCCC(F)(F)F)C(=O)O` [Compound I-8, (S)-2-amino-6,6,6-trifluorohexanoic Acid] the “Activity of Leucine: % Activity” value was “B (a % activity relative to leucine of ≤−40%)”.
For `CC(C)C(F)(F)[C@H](N)C(=O)O` [Compound I-46, (R)-2-amino-3,3-difluoro-4-methylpentanoic Acid], the “Activity of Leucine: % Activity” value was “C (a % activity relative to leucine of between -40 and 40%)”.
`CC(C)[C@H](N)C(=O)O` [Compound I-28] was tested, and the “Activity of Leucine: % Activity” value was “C (a % activity relative to leucine of between -40 and 40%)”.
`CC(C)C[C@H](N)C(=O)Nc1ccccc1` [Compound I-20, (S)-2-amino-4-methyl-N-phenylpentanamide] was tested, and the “Activity of Leucine: % Activity” value was “C (a % activity relative to leucine of between -40 and 40%)”.
With `CC[C@@H](C)[C@H](N)C(=O)O` [Compound I-29] the “Activity of Leucine: % Activity” value was “A (a % activity relative to leucine of ≥40%)”.
In the case of `CNC(=O)[C@@H](N)CC(C)C` [Compound I-21, (S)-2-amino-N,4-dimethylpentanamide], the “Activity of Leucine: % Activity” value is reported as “C (a % activity relative to leucine of between -40 and 40%)”.
With `CC(C[C@H](N)C(=O)O)C(F)(F)F` (stereo in doubt) [Compound I-145, (2S,4R)-2-amino-5,5,5-trifluoro-4-methylpentanoic Acid] the “Activity of Leucine: % Activity” value was “A (a % activity relative to leucine of ≥40%)”.
With `CC(C)CN[C@@H](CC(C)C)C(=O)O` [Compound I-14, (S)-2-(isobutylamino)-4-methylpentanoic Acid] the “Activity of Leucine: % Activity” value was “B (a % activity relative to leucine of ≤−40%)”.
For `CSCC[C@H](N)C(=O)O` [Compound I-30], the “Activity of Leucine: % Activity” value was “A (a % activity relative to leucine of ≥40%)”.
With `CC(C)C[C@H](Nc1ccccc1)C(=O)O` [Compound I-26, (S)-4-methyl-2-(phenylamino)pentanoic Acid] the “Activity of Leucine: % Activity” value was “C (a % activity relative to leucine of between -40 and 40%)”.
With `CC(C)C[C@H](N)C(=O)NS(=O)(=O)c1ccccc1` [Compound I-148] the “Activity of Leucine: % Activity” value was “A (a % activity relative to leucine of ≥40%)”.
`CC(C)C[C@H](NS(C)(=O)=O)C(=O)O` [Compound I-19, (S)-4-methyl-2-(methylsulfonamido)pentanoic Acid] was tested, and the “Activity of Leucine: % Activity” value was “C (a % activity relative to leucine of between -40 and 40%)”.
`CC(C)C[C@H](N)C(=O)N(C)CC(C)C` [Compound I-152] was tested, and the “Activity of Leucine: % Activity” value was “C (a % activity relative to leucine of between -40 and 40%)”.
With `CC(C)C[C@H](NC(=O)c1ccccc1)C(=O)O` [Compound I-15, (S)-2-benzamido-4-methylpentanoic Acid] the “Activity of Leucine: % Activity” value was “C (a % activity relative to leucine of between -40 and 40%)”.
